Experimental data taken from ChEMBL document CHEMBL1201862, “PubChem BioAssay data set” (2004).
The source made the active and inactive calls.

Key:
[1] = target: FAD-linked sulfhydryl oxidase ALR (Homo sapiens, UniProt P55789); test: inhibitors of human ALR sulfhydryl oxidase, dose response, biochemical, H2O2 detection, luminescence, cherry-pick (AID 493248)
Genome polyprotein = Genome polyprotein (dengue virus type 2, UniProt P29990); test: Dengue-2 NS5 methyltransferase inhibitors, primary screen, biochemical, confirmation dose response (AID 588689); assay type: functional
[2] = inhibitors of firefly luciferase expression or activity, dose response, H4 neuroglioma cells, luminescence (AID 1990); assay type: functional, cell-based
[3] = Luminescence Cell-Based Dose Response HTS to Identify Inhibitors of 5'UTR Stem-Loop Driven Prion Protein mRNA Translation in H4 Neuroglioblastoma Cells. [Related pubchem assays: 1827 (Project Summary), 1813 (Primary HTS)]; assay type: functional
Large T antigen = Large T antigen (Simian virus 40, UniProt P03070); assay type: functional, Betapolyomavirus macacae;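 note: Confirmatory-stage PubChem screen for compounds that inhibit SV40 T antigen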
HT-1080 = test: cytotoxicity in HT1080 fibrosarcoma cells, cell-based, fluorescence readout (AID 620); assay type: functional; conditions: Homo sapiens
[4] = inhibitors of SNCA 5'UTR-driven reporter translation, confirmation, H4 neuroglioma cells, luminescence (AID 1988); assay type: functional, cell-based
[5] = target: T1, Microphthalmia-associated transcription factor (Homo sapiens, UniProt O75030); test: TRPM1 promoter luciferase signal decrease, dose response, MITF inhibitor project, cell-based, SK-MEL-5, cherry-picked, set 3 (AID 493073); assay type: functional
T1 sequence (O75030 whole entry): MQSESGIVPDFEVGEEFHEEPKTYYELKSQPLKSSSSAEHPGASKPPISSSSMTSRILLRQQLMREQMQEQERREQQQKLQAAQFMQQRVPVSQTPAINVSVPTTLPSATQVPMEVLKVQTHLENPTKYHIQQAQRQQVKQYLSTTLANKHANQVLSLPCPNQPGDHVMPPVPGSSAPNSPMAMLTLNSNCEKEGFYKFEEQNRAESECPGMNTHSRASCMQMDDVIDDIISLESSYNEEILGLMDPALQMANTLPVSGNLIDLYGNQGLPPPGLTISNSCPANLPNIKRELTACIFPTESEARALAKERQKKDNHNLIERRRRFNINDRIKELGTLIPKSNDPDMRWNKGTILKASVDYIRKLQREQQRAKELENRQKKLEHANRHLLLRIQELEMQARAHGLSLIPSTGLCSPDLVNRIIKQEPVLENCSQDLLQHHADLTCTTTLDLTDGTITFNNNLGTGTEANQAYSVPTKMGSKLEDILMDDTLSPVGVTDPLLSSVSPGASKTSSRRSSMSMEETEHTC

[6] = target: T2, Luciferin 4-monooxygenase (Photinus pyralis, UniProt P08659); test: Counter Screen for Luciferase-based Assay Positives. [Related pubchem assays: 620, 618, 411 ]
T2 sequence (P08659 whole entry): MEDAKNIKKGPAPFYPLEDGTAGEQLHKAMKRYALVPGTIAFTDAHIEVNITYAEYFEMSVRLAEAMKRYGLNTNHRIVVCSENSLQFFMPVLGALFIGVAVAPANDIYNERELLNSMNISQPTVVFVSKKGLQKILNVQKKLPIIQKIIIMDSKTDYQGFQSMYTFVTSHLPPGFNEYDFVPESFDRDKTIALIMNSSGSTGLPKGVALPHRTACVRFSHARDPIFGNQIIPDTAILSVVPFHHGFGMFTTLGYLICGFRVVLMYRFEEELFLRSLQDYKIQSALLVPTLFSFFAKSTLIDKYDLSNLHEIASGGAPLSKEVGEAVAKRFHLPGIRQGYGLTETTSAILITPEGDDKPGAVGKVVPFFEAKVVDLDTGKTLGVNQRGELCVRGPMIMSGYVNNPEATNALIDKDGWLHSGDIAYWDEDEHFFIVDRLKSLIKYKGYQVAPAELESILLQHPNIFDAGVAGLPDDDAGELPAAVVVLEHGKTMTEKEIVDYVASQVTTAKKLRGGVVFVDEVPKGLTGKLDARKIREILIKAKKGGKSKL

[7] = target: T3, Ubiquitin-conjugating enzyme E2 N (Homo sapiens, UniProt P61088); assay type: functional;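 note: Dose-response confirmation in a TR-FRET assay detecting UBC13-driven polyubiquitin chain formation, inhibition measured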
T3 sequence (P61088 whole entry): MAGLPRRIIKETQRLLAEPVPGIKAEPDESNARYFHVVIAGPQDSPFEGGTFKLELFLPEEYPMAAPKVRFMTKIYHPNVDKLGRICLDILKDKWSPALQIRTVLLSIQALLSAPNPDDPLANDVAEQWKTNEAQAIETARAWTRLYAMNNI

[8] = target: Voltage-dependent T-type calcium channel subunit alpha-1H (Homo sapiens, UniProt O95180); assay type: functional;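 note: channel activity triggered by adding a high calcium stimulation buffer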
Voltage-dependent T-type calcium channel subunit alpha-1H, sequence (O95180 whole entry): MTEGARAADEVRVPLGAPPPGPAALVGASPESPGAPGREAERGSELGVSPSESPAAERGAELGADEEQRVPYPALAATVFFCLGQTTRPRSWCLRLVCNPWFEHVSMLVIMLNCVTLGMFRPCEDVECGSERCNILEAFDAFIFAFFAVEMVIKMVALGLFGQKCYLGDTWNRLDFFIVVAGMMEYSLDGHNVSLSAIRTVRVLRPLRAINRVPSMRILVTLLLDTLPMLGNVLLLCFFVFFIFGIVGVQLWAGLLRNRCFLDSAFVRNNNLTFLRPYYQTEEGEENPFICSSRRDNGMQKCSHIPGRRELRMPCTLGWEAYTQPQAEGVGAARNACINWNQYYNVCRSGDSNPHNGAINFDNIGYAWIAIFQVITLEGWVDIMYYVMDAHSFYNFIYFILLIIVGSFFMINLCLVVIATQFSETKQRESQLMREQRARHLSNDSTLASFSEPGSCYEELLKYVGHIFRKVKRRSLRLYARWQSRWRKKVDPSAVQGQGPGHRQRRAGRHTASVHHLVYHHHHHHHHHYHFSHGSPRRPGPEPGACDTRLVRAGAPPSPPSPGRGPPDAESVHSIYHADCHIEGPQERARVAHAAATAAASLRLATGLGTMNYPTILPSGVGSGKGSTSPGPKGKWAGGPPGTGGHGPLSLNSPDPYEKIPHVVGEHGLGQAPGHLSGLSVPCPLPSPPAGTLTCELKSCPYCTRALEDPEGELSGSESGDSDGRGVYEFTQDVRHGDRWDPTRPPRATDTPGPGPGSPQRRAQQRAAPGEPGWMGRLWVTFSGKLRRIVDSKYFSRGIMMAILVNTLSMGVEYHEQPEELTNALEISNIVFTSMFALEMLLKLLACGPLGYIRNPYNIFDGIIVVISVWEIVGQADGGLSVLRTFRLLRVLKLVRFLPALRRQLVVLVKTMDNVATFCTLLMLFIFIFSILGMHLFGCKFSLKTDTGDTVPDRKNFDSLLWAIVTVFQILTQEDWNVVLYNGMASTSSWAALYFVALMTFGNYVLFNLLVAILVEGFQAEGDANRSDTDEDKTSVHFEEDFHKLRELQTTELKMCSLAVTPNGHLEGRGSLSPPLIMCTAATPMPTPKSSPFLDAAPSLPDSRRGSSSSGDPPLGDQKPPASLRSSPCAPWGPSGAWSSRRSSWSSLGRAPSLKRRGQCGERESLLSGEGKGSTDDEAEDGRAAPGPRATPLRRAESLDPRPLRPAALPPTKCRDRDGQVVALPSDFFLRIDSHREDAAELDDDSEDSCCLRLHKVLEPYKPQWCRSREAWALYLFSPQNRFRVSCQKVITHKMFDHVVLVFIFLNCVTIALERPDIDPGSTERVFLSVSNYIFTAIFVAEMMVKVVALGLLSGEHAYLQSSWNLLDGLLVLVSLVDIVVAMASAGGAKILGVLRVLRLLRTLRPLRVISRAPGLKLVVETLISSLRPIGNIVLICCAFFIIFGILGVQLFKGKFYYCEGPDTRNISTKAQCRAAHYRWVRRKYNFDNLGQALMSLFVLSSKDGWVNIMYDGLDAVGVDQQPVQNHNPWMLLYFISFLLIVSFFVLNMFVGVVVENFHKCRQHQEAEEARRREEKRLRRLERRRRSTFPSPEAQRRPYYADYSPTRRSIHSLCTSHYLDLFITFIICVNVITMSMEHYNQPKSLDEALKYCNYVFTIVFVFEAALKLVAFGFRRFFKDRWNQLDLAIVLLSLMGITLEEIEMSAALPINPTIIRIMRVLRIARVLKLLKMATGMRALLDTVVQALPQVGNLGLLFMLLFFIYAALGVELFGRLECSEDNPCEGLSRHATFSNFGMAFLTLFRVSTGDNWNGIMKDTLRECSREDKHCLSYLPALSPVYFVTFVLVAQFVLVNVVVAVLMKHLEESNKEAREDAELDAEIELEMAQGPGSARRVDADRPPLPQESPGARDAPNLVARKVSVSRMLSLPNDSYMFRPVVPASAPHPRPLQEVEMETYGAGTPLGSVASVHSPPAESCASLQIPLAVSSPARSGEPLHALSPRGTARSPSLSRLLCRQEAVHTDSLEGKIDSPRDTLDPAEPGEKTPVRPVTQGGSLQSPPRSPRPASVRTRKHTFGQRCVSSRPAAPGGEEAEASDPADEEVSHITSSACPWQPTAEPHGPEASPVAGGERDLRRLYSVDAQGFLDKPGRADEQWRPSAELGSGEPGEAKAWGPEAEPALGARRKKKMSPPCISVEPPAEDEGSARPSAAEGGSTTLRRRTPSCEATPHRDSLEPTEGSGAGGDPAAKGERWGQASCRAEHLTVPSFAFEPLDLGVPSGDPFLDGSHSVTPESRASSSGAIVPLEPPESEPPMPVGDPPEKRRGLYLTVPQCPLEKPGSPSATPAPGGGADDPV

[9] = Luminescence Cell-Based Dose Confirmation HTS to Identify Inhibitors of Platelet Dense Granule Release. [Related pubchem assays: 1663 (Primary HTS), 1678 (Summary of Project)]; assay type: functional
[10] = target: T2, Luciferin 4-monooxygenase; test: firefly luciferase enzyme inhibitors, dose response, biochemical, luminescence (AID 1891)
[11] = target: T4, DNA dC->dU-editing enzyme APOBEC-3G (Homo sapiens, UniProt Q9HC16); assay type: functional
T4 sequence (Q9HC16 whole entry): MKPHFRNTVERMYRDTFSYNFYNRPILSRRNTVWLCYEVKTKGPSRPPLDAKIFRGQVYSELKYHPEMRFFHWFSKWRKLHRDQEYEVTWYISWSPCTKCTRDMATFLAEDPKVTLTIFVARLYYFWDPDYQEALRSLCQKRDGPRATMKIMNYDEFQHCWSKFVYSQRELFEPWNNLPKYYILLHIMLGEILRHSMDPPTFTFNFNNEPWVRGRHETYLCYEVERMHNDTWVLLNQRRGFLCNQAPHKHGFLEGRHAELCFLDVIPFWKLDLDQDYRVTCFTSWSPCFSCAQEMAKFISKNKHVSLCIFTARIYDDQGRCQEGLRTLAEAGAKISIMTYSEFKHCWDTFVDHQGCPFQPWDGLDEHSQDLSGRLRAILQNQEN

[12] = target: DNA dC->dU-editing enzyme APOBEC-3A (Homo sapiens, UniProt P31941); test: Dose Response confirmation of small molecule APOBEC3A DNA Deaminase Inhibitors via a fluorescence-based single-stranded DNA deaminase assay. [Related pubchem assays (depositor defined):AID493011, AID493024]; assay type: functional
DNA dC->dU-editing enzyme APOBEC-3A, sequence (P31941 whole entry): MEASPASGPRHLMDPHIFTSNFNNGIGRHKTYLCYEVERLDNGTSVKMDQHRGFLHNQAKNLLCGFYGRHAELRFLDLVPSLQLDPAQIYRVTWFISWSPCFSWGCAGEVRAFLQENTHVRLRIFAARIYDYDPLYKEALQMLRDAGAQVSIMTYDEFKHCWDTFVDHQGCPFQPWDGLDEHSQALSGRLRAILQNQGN

[13] = HEp-2 cell cytotoxicity, dose response, cytotoxicity control for RSV inhibitor project, HTS (AID 2410); assay type: functional; conditions: human respiratory syncytial virus
SUMO-activating enzyme [14] = target: T5, SUMO-activating enzyme (Homo sapiens, UniProt Q9UBT2); test: inhibitors of in vitro SUMOylation cascade, primary screen, biochemical, HTRF, uHTS (AID 2006); assay type: protein-complex assay
T5 sequence (Q9UBE0 whole entry): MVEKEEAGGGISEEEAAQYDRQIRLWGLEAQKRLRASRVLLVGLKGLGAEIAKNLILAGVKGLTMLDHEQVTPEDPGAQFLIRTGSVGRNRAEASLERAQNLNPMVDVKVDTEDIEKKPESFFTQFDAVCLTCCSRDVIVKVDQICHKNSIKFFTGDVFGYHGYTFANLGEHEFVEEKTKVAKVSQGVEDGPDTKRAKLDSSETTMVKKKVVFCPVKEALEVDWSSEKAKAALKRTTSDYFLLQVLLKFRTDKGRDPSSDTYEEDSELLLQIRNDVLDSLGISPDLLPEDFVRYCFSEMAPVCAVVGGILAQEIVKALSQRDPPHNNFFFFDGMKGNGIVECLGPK
T5 sequence (Q9UBT2 whole entry): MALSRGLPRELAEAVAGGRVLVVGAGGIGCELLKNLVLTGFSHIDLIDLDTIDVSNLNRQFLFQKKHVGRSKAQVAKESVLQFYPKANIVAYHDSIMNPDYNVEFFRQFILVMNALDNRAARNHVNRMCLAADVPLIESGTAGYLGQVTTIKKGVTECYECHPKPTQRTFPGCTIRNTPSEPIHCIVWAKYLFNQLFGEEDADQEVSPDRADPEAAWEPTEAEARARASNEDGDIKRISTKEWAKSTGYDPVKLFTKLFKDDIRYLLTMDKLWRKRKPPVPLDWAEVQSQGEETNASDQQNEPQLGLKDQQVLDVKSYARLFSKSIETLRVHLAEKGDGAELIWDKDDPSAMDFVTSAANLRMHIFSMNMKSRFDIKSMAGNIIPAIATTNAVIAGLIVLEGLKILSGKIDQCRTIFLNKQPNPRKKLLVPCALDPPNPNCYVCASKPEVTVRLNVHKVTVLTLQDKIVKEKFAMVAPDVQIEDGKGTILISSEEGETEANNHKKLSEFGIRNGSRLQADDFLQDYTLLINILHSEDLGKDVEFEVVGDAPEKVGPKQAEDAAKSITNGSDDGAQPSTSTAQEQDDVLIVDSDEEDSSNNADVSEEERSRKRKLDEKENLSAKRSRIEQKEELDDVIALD

SUMO-activating enzyme [15] = target: T5, SUMO-activating enzyme; test: SUMOylation inhibitor hit validation, confirmation, SUMOylation inhibitor project, biochemical, AlphaScreen (AID 2018); assay type: functional
[16] = target: Photoreceptor-specific nuclear receptor (Homo sapiens, UniProt Q9Y5X4); assay type: functional;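 note: potency for compounds that break the NR2E3 corepressor complex and count as activators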
Photoreceptor-specific nuclear receptor, sequence (Q9Y5X4 whole entry): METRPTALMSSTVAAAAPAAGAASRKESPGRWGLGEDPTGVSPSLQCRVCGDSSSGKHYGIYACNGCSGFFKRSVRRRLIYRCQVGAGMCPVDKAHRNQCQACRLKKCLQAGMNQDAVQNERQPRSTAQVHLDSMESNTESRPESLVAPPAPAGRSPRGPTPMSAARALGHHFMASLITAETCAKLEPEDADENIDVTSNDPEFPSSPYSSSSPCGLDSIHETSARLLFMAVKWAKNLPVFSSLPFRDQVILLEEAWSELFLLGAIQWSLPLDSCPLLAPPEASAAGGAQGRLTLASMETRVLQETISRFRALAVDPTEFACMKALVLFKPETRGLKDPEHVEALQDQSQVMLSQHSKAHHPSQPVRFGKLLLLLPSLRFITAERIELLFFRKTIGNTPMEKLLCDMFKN

[17] = target: Peroxisome proliferator-activated receptor gamma/Nuclear receptor corepressor 2 (Homo sapiens, UniProt P37231+Q9Y618); assay type: functional
[18] = inhibitors of intracellular T. cruzi replication, confirmation, NIH3T3 host cells, beta-gal luminescence (AID 2044); assay type: functional, cell-based;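 note: intracellular parasites grown in NIH/3T3 mouse fibroblasts as host cells; luminescent beta-galactosidase reporter signal from transgenic T. cruzi replicating inside host cells; inhibitors lower the luminescence signal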
[19] = Luminescence Cell-Based Dose Retest to Confirm Inhibitors of Cancer Stem Cells. [Related pubchem assays (depositor defined):AID2717, AID2721]; assay type: functional; conditions: Homo sapiens
[20] = cytotoxicity toward NIH3T3 fibroblasts, dose response, counter-screen, cell-based, ATP luminescence, mouse fibroblasts (AID 2010); assay type: functional;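 note: cells exposed to compound for about 90 hours before reading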
HEK293 = test: inhibitors of LMP1-driven NF-kB reporter, dose response, cell-based, HEK293, luciferase, cherry-pick (AID 588343); assay type: functional; conditions: Homo sapiens
[21] = target: T4, DNA dC->dU-editing enzyme APOBEC-3G; test: Dose Response confirmation of small molecule APOBEC3G DNA Deaminase Inhibitors via a fluorescence-based single-stranded DNA deaminase assay. [Related pubchem assays (depositor defined):AID493012, AID493028]; assay type: functional
Protein skinhead-1 = target: T6, Protein skinhead-1 (Caenorhabditis elegans, UniProt P34707); assay type: functional
T6 sequence (P34707 whole entry): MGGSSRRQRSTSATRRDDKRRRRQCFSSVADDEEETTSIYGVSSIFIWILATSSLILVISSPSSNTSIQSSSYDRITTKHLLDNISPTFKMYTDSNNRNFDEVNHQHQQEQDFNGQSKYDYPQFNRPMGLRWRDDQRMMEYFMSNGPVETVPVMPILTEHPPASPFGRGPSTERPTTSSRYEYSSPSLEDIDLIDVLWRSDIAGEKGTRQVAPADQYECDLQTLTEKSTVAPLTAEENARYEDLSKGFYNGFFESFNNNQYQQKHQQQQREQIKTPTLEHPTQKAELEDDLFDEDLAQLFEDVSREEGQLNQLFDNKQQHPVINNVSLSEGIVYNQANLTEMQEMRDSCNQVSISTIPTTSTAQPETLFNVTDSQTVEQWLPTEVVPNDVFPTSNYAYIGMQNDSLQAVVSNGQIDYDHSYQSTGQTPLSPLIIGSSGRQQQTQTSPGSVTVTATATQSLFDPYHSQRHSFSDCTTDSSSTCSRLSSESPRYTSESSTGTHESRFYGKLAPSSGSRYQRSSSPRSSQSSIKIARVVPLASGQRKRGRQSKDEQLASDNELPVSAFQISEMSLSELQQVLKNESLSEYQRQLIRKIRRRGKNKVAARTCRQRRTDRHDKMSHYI

[22] = target: T7, Carboxy-terminal domain RNA polymerase II polypeptide A small phosphatase 1 (Homo sapiens, UniProt Q9GZU7); test: inhibitors of CTDSP1, concentration-response testing, biochemical assay, absorbance-based, actives from ultra-high-throughput screening (AID 540297); assay type: functional
T7 sequence (Q9GZU7 whole entry): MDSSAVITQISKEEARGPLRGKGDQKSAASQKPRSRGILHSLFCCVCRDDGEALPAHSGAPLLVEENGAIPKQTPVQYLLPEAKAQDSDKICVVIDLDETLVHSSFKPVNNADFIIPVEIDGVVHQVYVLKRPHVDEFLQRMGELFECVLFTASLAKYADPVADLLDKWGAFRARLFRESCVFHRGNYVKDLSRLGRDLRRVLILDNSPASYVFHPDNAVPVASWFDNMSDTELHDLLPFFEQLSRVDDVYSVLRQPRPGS

Cytochrome P450 2C9 = Cytochrome P450 2C9 (Homo sapiens, UniProt P11712)
Cytochrome P450 1A2 = target: T8, Cytochrome P450 1A2 (Homo sapiens, UniProt P05177);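 note: PubChem cytochrome P450 panel assay, CYP1A2 panel member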
T8 sequence (P05177 whole entry): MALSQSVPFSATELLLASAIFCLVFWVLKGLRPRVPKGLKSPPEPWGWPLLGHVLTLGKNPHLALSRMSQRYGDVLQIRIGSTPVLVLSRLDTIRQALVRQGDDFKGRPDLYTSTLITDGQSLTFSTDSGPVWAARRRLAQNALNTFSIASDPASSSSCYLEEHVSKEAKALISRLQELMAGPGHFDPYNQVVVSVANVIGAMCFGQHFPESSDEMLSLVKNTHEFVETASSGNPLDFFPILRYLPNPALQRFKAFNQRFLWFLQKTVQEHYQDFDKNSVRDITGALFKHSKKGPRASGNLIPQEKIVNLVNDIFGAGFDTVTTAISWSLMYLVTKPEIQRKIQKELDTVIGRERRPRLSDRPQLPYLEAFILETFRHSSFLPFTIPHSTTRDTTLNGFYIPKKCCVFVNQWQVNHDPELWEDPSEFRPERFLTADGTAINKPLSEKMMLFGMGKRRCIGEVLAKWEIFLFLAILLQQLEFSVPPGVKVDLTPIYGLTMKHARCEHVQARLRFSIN

Streptococcus = test: Group A Streptococcus viability loss, dose response, counter-screen for streptokinase expression inhibitor project, luminescence, BacTiterGlo (AID 1915); assay type: functional, organism-based;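 note: potency for reduction of bacterial viability or growth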
[23] = test system: Streptococcus sp. 'group A'; test: growth inhibition of control SK(-) GAS strain, dose response, counter-screen for streptokinase expression inhibitor project, luminescence, kanamycin, BacTiterGlo, confirmation (AID 1900); assay type: functional, organism-based
INS1 = test: beta cell apoptosis inhibitors, cytokine rescue, dose response, luminescence, retest (AID 449756); assay type: functional, cell-based; conditions: Rattus norvegicus;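 note: cell death triggered by IL-1 beta plus TNF-alpha plus IFN-gamma mixture; protective hits raise ATP signal compared with cytokine alone wells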
cells [24] = assay type: functional, cell-based
cells [25] = assay type: functional, cell-based; remark: listed apart in the source

O=C(O)CN1C(=O)/C(=C\c2cccc(OCc3ccccc3)c2)SC1=S
AC50 [1]: 4.52 µM (active)
IC50 (Genome polyprotein): 42.2 µM (active)

Nc1ccc(-c2nc3c(Cl)cc(N)cc3[nH]2)cc1
EC50 [2]: 9.81 µM (active)
EC50 [3]: 0.21 µM (active)
IC50 (Large T antigen): 9.32 µM (active)
AC50 [1]: 0.556 µM (active)
EC50 (HT-1080): > 50 µM (not active)
EC50 [4]: 7.08 µM (active)
AC50 [5]: 3.76 µM (active)
EC50 [6]: < 0.2 µM (active)

CCOCCCNC(=O)c1cn(CC(C)C)c(=O)c2c1c1ccccc1n2C
IC50 [7]: > 20 µM (inactive)

CC(Sc1nnc(-c2cccs2)n1Cc1ccccc1)C(=O)NCc1ccc2c(c1)OCO2 (centres undefined)
EC50 [8]: 9.04 µM (active)

COc1ccc(NC(=O)c2cc3ccccn3n2)cc1
EC50 [9]: > 112 µM (not active)
EC50 (HT-1080): 29.9 µM (active)
EC50 [6]: 3.55 µM (active)
EC50 [10]: 31.4 µM (active)

CCSCCNC(=O)c1cc(-n2cnnc2)ccc1Cl
IC50 [11]: 4.09 µM (active)
IC50 [12]: 4.2 µM (active)

CC(C(=O)N1c2ccccc2CCc2ccccc21)n1nnc(-c2ccc(N(C)C)cc2)n1 (centres undefined)
EC50 [8]: 4.2 µM (active)

O=C1NC(=O)N(Cc2ccco2)C(=O)/C1=C\c1cccn1CCOc1ccc(Cl)cc1
CC50 [13]: 24.2 µM (active)
IC50 (SUMO-activating enzyme [14]): 35.7 µM (active)
IC50 (SUMO-activating enzyme [15]): 5.71 µM (active)

COC(=O)CCCC[C@H]1SC[C@H]2NC(=O)N[C@]21O
IC50 [16]: 0.389 µM (active)
IC50 [17]: 1.92 µM (active)

CCN1CCN(Cc2ccc(NC(=O)c3ccc(C)c(NC(=O)c4cc(-c5ccc(Br)cc5)[nH]n4)c3)cc2C(F)(F)F)CC1
EC50 [18]: 1.53 µM (active)
AC50 [19]: 3.4 µM (active)
EC50 [20]: > 30 µM (not active)
IC50 [7]: > 20 µM (inactive)
AC50 (HEK293): 0.741 µM (active)

Cc1noc(C)c1CSc1nc2cc(S(=O)(=O)N3CCOCC3)ccc2o1
IC50 [21]: 50.7 µM (active)

Cc1ccc(C)c(N2CCN(C(c3ccc(N(C)C)cc3)c3nnnn3C(C)(C)C)CC2)c1 (centres undefined)
EC50 [8]: 4.2 µM (active)
IC50 (Protein skinhead-1): > 100 µM (inactive)

O=C(COc1ccc(CO)cc1Cl)Nc1ccc(F)cc1
EC50 (HT-1080): > 50 µM (not active)
EC50 [6]: > 100 µM (not active)

CCC(Sc1nc(O)c(C#N)c(-c2ccccc2)n1)C(=O)Nc1cc(C)on1 (centres undefined)
IC50 [16]: > 39.8 µM (not active)
IC50 [17]: 4.41 µM (active)

CC(C)CSC1=NSC2=NC(=O)/C(=C\c3ccccc3)C(=N)N12
IC50 (Genome polyprotein): 51.8 µM (active)

CC[N+]1(CC)CC2CCC(C)(C1)C2(C)C (centres undefined)
IC50 [11]: 3.3 µM (active)
IC50 [22]: 12.1 µM (active)
IC50 [12]: 2.28 µM (active)

COc1ccc(CCNC(=O)C2CCCN(Cc3nc(-c4cccc(Cl)c4)oc3C)C2)cc1OC (centres undefined)
AC50 (Cytochrome P450 2C9): 6.31 µM (inconclusive)
EC50 [8]: 5.34 µM (active)
EC50 [18]: 0.145 µM (active)
AC50 (Cytochrome P450 1A2): 15.8 µM (inconclusive)
EC50 [20]: > 60 µM (not active)

O=C(N/N=C/c1cc(Br)cc(Br)c1O)c1ccncc1
EC50 (Streptococcus): 2.5 µM (active)
EC50 [23]: 0.807 µM (active)
AC50 (INS1): 2.64 µM (active)
IC50 (SUMO-activating enzyme [14]): 8.52 µM (active)
EC50 (cells [24]): > 350 µM (not active)
EC50 (cells [25]): 24.8 µM (active)
IC50 (SUMO-activating enzyme [15]): 5.03 µM (active)

COc1ccc(CSCC(=O)N/N=C/c2ccc(OCC(=O)N3CCCCC3)cc2)cc1
IC50 [11]: 6.1 µM (active)
IC50 [12]: 5.86 µM (active)
